Source: patent US6166290A, “Glutathione-S-conjugate transport in plants” (The Trustees of the University of Pennsylvania, priority 1997, dated 2000)

Assays:
[1] = molecular target: T1, YCF1 (vacuolar membrane vesicles purified from DTY165 cells) (Saccharomyces cerevisiae, UniProt P39109); test: [3H]DNP-GS uptake by vacuolar membrane vesicles purified from DTY165 cells; format: biochemical
T1 construct: endogenous in cells; host or cells: S. cerevisiae DTY165 (wild type YCF1), vacuolar membrane vesicles
T1 sequence (P39109 whole entry): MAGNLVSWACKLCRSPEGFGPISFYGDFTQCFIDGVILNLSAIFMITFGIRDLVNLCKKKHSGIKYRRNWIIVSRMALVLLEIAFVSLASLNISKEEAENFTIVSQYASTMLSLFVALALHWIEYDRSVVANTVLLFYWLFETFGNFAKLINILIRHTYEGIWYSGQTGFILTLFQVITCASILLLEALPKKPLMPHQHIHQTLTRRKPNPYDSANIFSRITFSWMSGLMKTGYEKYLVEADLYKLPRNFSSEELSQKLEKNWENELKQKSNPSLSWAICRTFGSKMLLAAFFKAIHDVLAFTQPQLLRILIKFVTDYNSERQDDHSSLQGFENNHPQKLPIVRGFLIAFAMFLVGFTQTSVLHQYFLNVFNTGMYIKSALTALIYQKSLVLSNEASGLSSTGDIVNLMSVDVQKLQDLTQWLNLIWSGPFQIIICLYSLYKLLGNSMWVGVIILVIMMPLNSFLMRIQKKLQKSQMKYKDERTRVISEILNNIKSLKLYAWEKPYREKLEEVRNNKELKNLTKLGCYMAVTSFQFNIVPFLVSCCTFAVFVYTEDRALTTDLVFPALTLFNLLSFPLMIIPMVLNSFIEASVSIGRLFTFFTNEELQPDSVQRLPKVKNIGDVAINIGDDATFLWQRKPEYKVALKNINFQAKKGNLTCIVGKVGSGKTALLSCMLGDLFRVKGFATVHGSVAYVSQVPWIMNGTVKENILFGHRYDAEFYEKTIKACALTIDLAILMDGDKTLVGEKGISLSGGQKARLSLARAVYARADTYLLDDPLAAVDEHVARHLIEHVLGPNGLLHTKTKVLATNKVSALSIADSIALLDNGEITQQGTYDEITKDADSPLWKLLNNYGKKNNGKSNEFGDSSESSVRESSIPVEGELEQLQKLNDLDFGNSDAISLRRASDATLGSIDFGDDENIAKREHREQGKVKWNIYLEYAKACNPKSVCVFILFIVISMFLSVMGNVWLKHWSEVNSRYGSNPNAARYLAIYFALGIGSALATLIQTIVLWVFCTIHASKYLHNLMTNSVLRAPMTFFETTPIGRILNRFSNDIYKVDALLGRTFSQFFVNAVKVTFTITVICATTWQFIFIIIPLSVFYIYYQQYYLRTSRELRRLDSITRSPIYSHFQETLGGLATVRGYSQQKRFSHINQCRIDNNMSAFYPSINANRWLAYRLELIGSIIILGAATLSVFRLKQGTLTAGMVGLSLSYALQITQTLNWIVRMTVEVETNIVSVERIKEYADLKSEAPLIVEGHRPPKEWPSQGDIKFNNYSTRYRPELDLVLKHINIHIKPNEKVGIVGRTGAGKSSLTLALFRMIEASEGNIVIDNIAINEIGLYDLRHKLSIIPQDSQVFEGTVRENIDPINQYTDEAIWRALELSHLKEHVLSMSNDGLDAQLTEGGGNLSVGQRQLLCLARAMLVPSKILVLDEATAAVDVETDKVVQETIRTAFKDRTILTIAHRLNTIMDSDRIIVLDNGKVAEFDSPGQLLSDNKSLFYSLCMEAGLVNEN
Procedure, shortened: (§1)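 ATP-dependent [3H]DNP-GS (66.2 μM) transport measured by filtration and scintillation counting of Ficoll-purified yeast vacuolar vesicles (DTY165 wild type; DTY167 ycf1Δ), 1–60 min at 25 °C in sorbitol/Tris-Mes pH 8.0 with 3 mM ATP, 3 mM MgSO4 and gramicidin-D. Nonenergized uptake without ATP/Mg2+.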

[2] = system: vacuolar membrane vesicles purified from DTY167 cells (ycf1Δ mutant); format: biochemical, Saccharomyces cerevisiae; conditions: 5 μM gramicidin D, GSH, GSSG 1 mM, GS-conjugates 100 μM
Procedure, shortened: as §1

AtMRP1 = molecular target: T2, AtMRP1 (Arabidopsis thaliana, UniProt Q9C8G9); test: AtMRP1-dependent uptake by membrane vesicles from pYES3-AtMRP1-transformed DTY168 cells; format: biochemical; conditions: MgATP-dependent, uncoupler-insensitive
T2 construct: S. cerevisiae DTY168 (ycf1 null) vacuolar-enriched membrane vesicles
T2 sequence (Q9C8G9 whole entry): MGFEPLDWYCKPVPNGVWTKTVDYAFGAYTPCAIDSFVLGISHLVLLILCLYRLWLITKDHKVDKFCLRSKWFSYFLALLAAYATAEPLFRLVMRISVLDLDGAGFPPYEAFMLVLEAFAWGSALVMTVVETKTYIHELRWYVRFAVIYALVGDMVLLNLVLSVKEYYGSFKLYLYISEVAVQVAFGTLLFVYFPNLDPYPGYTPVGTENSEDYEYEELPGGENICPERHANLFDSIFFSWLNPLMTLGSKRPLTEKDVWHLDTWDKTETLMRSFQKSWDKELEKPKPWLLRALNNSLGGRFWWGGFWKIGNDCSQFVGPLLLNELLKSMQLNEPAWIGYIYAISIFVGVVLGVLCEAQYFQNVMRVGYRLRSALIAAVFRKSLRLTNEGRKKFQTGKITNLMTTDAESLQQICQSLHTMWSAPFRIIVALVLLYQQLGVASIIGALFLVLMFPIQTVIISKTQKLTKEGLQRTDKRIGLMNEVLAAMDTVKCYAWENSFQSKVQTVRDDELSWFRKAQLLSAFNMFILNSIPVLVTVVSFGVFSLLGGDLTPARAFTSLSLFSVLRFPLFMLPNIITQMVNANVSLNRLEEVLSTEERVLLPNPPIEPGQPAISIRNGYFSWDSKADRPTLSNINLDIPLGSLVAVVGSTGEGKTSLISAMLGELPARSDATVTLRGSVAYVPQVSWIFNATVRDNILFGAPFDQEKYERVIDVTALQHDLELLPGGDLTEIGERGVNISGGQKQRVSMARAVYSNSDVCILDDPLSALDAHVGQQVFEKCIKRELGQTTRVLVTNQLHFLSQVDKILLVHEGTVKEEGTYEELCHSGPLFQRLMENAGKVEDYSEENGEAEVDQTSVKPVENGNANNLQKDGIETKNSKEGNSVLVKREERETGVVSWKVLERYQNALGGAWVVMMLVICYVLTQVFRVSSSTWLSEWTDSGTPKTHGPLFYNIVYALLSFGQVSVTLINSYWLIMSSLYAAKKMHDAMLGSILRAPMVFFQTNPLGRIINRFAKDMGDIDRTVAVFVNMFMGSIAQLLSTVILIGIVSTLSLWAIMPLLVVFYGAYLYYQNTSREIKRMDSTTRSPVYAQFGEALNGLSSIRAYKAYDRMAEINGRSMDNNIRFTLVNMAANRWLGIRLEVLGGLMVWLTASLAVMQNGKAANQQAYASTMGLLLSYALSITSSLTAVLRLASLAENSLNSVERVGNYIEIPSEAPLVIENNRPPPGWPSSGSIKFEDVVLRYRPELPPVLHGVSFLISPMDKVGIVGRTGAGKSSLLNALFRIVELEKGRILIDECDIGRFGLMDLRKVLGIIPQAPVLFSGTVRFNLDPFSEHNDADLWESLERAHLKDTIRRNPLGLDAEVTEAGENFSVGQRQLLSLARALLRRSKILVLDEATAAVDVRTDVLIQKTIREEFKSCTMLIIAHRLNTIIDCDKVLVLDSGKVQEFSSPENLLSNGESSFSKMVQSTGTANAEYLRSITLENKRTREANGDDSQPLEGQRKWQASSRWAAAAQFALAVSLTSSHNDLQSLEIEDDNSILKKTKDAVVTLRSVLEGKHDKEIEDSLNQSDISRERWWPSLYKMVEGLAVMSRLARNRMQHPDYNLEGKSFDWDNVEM
Description: S. cerevisiae strain DTY168 (MATα his6, leu2-3, -112, ura3-52 ycf1::hisG) was transformed with pYES3-AtMRP1 or empty vector lacking the AtMRP1 insert (pYES3) by the LiOAc/PEG method (Giest et al., 1991, Yeast 7:253-263) and selected for uracil prototrophy by plating on AHC medium containing tryptophan (Kim et al., 1994, supra).
For the preparation of membrane vesicles, 15 ml volumes of stationary phase cultures of the transformants were diluted into 1 L of fresh AHC medium and grown to an OD600 nm of about 1.2. Membrane vesicles were purified as described herein and in Kim et al. (1995, supra).
[…] μl reaction volumes containing 3 mM ATP, 3 mM MgSO4, 5 μM gramicidin-D, 10 mM creatine phosphate, 16 units/ml creatine kinase, 50 mM KCl, 1 mg/ml BSA, 400 mM sorbitol, 25 mM Tris-Mes ([…]).
(§2) Cells were grown and vacuolar membrane-enriched vesicles were prepared as described (Kim et al., 1995, J Biol. Chem. 270:2630-2635-). […] Uptake was terminated by the addition of 1 ml ice-cold wash medium (400 mM sorbitol/3 mM Tris-Mes, pH 8.0) and vacuum filtration of the suspension through prewetted Millipore HA cellulose nitrate filters (pore size 0.45 μm). The filters were rinsed twice with wash medium, and the retained radioactivity was determined by liquid scintillation counting. Nonenergized uptake was estimated by the same procedure except that ATP was omitted from the uptake medium.

AtMRP2 = molecular target: T3, AtMRP2 (Arabidopsis thaliana, UniProt Q42093); test: AtMRP2-dependent uptake by membrane vesicles from pYES3-AtMRP2-transformed DTY168 cells; format: biochemical; conditions: MgATP-dependent, uncoupler-insensitive
T3 construct: S. cerevisiae DTY168 (ycf1 null) vacuolar-enriched membrane vesicles
T3 sequence (Q42093 whole entry): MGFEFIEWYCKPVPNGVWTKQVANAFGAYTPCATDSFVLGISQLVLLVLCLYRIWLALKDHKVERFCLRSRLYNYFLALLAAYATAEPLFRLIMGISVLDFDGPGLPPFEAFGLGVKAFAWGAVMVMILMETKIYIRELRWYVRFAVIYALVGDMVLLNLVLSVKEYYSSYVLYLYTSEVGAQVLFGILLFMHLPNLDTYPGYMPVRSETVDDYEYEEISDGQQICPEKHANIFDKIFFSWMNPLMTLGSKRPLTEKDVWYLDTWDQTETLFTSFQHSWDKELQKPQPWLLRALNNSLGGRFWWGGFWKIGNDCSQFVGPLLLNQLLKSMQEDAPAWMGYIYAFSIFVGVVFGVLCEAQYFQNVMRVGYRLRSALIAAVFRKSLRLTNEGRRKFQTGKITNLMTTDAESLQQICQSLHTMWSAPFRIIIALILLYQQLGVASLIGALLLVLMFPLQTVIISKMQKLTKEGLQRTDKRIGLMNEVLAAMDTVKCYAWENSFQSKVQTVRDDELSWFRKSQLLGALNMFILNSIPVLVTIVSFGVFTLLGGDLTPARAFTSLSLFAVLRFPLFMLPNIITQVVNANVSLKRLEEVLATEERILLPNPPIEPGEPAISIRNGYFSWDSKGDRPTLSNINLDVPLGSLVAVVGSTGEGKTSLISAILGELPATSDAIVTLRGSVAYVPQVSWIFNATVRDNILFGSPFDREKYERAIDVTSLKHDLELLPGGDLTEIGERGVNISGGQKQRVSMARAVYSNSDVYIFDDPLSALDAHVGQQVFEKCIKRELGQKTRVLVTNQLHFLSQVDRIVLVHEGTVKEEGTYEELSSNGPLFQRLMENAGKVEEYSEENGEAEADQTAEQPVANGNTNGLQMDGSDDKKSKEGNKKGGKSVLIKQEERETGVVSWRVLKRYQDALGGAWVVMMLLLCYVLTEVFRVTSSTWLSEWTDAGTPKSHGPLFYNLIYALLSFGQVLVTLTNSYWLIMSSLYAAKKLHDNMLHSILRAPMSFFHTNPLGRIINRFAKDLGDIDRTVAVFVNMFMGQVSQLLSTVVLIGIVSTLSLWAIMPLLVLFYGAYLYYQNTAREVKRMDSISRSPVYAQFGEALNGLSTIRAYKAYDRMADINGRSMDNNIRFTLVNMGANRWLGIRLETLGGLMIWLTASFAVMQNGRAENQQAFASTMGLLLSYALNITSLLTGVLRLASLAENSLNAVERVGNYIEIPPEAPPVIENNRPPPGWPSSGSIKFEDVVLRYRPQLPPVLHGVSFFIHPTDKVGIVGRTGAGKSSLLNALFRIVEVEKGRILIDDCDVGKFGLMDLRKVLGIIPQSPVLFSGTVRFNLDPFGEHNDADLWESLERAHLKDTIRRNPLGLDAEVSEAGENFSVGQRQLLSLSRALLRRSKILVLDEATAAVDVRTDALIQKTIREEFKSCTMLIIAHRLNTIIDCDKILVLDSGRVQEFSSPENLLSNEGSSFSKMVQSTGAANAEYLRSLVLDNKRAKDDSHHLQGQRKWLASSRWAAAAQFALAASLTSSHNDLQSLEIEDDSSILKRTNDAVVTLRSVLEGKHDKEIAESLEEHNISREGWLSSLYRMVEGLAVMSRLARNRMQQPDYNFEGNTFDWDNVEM
Description: as §2
Membranes from DTY168/pYES3-AtMRP2 cells were incubated for 10 minutes in standard uptake medium containing 61.3 μM [^3 H]DNP-GS after which time 200 mM glucose and 50 units/ml hexokinase (Type F-300 from baker's yeast) were added. […] Control samples were treated identically except that no additions were made after the initial 10 minute incubation period.

barley vacuoles = conditions: cited from earlier work
[3] = molecular target: T1, YCF1 (vacuolar membrane vesicles purified from DTY165 cells); test: biochemical; format: biochemical
Procedure, shortened: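 Vacuolar vesicles from wild-type (DTY165) or ycf1Δ (DTY167) yeast, washed free of DTT/EGTA into glycerol/Tris-Mes pH 8.0. MgATP-energized, uncoupler-insensitive uptake of 109Cd2+, GSH or purified radiolabeled Cd·GSn complexes measured at 25°C. Medium: 3 mM ATP/MgSO4, ATP-regenerating system, 5 μM gramicidin-D, Tris-Mes pH 8.0; washes contained 100 μM CdSO4.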

[4] = system: vacuolar membrane vesicles purified from DTY167 cells (ycf1Δ mutant); format: biochemical, Saccharomyces cerevisiae
Description: In experiments involving cadmium transport, dithiothreitol and EGTA were removed from the suspension medium to prevent the attenuation of YCF1-dependent Cd^2+ transport otherwise exerted by these compounds. Vesiculated vacuolar membranes were subjected to three cycles of 50-fold dilution into simplified suspension medium (1.1 M glycerol, 5 mM Tris-Mes, pH 8.0), centrifugation at 100,000× g for 35 minutes and resuspension in the same medium before use.
Singly radiolabeled ^109 Cd.GSn and doubly radio-labeled ^109 Cd[^3 H].GS^n complexes were prepared by sequential gel-filtrationand anion-exchange chromatography of the reaction products generated by incubating 20 mM ^109 CdSO4 (78.4 mCi/mmol) with 40 mM GSH or 40 mM [^3 H]GSH (240 mCi/mmol) in 15 ml 10 mM phosphate buffer (pH 8.0) containing 150 mM KNO3 at 45° C. for 24 hours. For gel-filtration, 2 ml aliquots of the reaction mixture were applied to a column (40×1.5 cm ID) packed with water-equilibrated Sephadex G-1 5, eluted with deionized water and ^109 Cd and/or ^3 H in the fractions was measured by liquid scintillation counting. The fractions encompassed by each of the two ^109 Cd.GSn peaks identified were pooled, lyophilized and redissolved in 4 ml of loading buffer (5 mM Tris-Mes, pH 8.0). For anion-exchange chromatography, 0.5 ml aliquots of the resuspended lyophilizates from gel-filtration chromatography were applied to a Mono-Q HR5/5 column (Pharmacia) equilibrated with the same buffer. Elution was with a linear gradient of NaCl (0.5 ml/minute; 0-500 mM) dissolved in loading buffer. The individual fractions corresponding to the major peaks of ^109 Cd obtained from the Mono-Q column (one each for the peaks resolved by gel-filtration chromatography) were pooled, lyophilized and resuspended in 4 ml deionized water after liquid scintillation counting.
MgATP-energized, uncoupler-insensitive ^109 Cd^2+ uptake by vacuolar membrane vesicles was measured at 25° C. in 200 μl reaction volumes containing 3 mM ATP, 3 mM MgSO4, 5 μM gramicidin-D, 10 mM creatine phosphate, 16 units/ml creatine kinase, 50 mM KCl, 400 mM sorbitol, 25 mM Tris-Mes (pH 8.0) and the indicated concentrations of ^109 CdSO4, GSH or ^109 Cd- and/or ^3 H-labeled purified Cd.GSn complexes as described herein except that the wash media contained 100 μM CdSO4 in addition to sorbitol (400 mM) and Tris-Mes (3 mM, pH 8.0).

YCF1-specific mRNA = conditions: 24 hour pretreatment; CdSO4 200 μM, CDNB 150 μM
[5] = 80 μM 109CdSO4, compound 1 mM, 5 μM gramicidin-D
[6] = 3 mM MgATP, 80 μM 109CdSO4, compound 1 mM, 5 μM gramicidin-D

Row | Structure (SMILES) | MgATP-dependent, uncoupler-insensitive DNP-GS uptake plus compound ([1]; 5 μM gramicidin D, GSH, GSSG 1 mM, GS-conjugates 100 μM) [nmol/mg/10 minutes] | MgATP-dependent, uncoupler-insensitive DNP-GS uptake as percentage of control ([1]; 5 μM gramicidin D, GSH, GSSG 1 mM, GS-conjugates 100 μM, 10 min) [%] | inhibition at 100 µM ([1]; 100 μM compound) [%] | MgATP-dependent, uncoupler-insensitive DNP-GS uptake plus compound [2] [nmol/mg/10 minutes] | MgATP-dependent, uncoupler-insensitive DNP-GS uptake as percentage of control ([2]; 10 min) [%] | Vmax for AtMRP1-dependent uptake (AtMRP1) [nmol/mg/10 min] | Vmax for AtMRP1-dependent uptake (AtMRP1; listed as metolachlor-GS) [nmol/mg/10 min] | Vmax for AtMRP2-dependent uptake (AtMRP2) [nmol/mg/10 min] | Vmax for AtMRP2-dependent uptake (AtMRP2; listed as metolachlor-GS) [nmol/mg/10 min] | Km estimated previously (barley vacuoles) [µM] | increase of [3H]DNP-GS uptake into vesicles from pretreated cells ([1]; 24 hour pretreatment, CdSO4 200 μM, CDNB 150 μM, 66.2 μM DNP-GS) [fold] | 109Cd uptake, -MgATP [3, 5] [nmol/mg/10 minutes] | MgATP-dependent, uncoupler-insensitive 109Cd2+ uptake rate ([3]; 80 μM Cd2+, 1 mM GSH) [nmol/mg/min] | 109Cd uptake, +MgATP [3, 6] [nmol/mg/10 minutes] | increase of 109Cd.GS2 uptake into vesicles from pretreated cells ([3]; 24 hour pretreatment, CdSO4 200 μM, CDNB 150 μM, 50 μM Cd.GS2) [fold] | 109Cd uptake, -MgATP [4, 5] [nmol/mg/10 minutes] | MgATP-dependent, uncoupler-insensitive 109Cd2+ uptake rate ([4]; 80 μM Cd2+, 1 mM GSH) [nmol/mg/min] | 109Cd uptake, +MgATP [4, 6] [nmol/mg/10 minutes] | increase of YCF1-specific mRNA level (YCF1-specific mRNA) [fold]
1 | CCc1cccc(C)c1N(C(=O)CSC[C@H](NC(=O)CC[C@H](N)C(=O)O)C(=O)NCC(=O)O)C(C)COC (stereo partly shown) [Metolachlor-GS] | 27.6 ± 0.9 | 57.7 | ~50 | 4.8 ± 0.7 | 73.8 | 17.5 ± 5.2 | 17.5±5.2 | 136.0 ± 28.1 | 136.0±28.1 | 40 to 60 |  |  |  |  |  |  |  |  | 
2 | [Cd+2] [Cd^2+] |  |  |  |  |  |  |  |  |  |  | 1.6 | 5.8 ± 2.4 | 4.5 | 5.6 ± 1.5 | 1.4 | 4.3 ± 1.3 | 0.8 | 4.6 ± 2.1 | 1.9
